Converted amounts (≈) assume the structure as drawn. Where two headings read alike, the source gives them in different places.
What was measured:
Test in all cases: MIC, micro-broth dilution method
Format in all cases: cell-based
[1] = tested on: Staphylococcus aureus ATCC29213
Description: (§1) The minimum inhibitory concentration (MIC) of pleuromutilin cinnamate easters and their starting materials was tested by a micro-broth dilution method, with retamoline, vornimulin and tiamulin as positive controls.
(§2) The experimental strains included Gram-positive bacteria: Methicillin-sensitive Staphylococcus epidermidis ATCC12228, Staphylococcus aureus ATCC29213 and ATCC25923, and Methicillin-resistant Staphylococcus aureus ATCC33591; Gram-negative bacteria: Acinetobacter baumannii ATCC19606 and E. coli Bacillus ATCC25922 (the strains used were from the American type culture collection (ATCC)).

[2] = tested on: Staphylococcus aureus ATCC25923
Description: as §1, §2

[3] = tested on: Methicillin-sensitive Staphylococcus epidermidis ATCC12228; settings: for inhibitory effect compared with the three tested positive controls: methicillin-sensitive Staphylococcus epidermidis, statement in words from Table 1
Description: as §1, §2

[4] = tested on: Escherichia coli ATCC25922
Description: as §1, §2

[5] = tested on: Acinetobacter baumannii ATCC19606
Description: as §1, §2

[6] = tested on: Methicillin-resistant Staphylococcus aureus ATCC33591
Description: as §1, §2

[7] = Staphylococcus aureus ATCC29213, 37° C., 20-22 h, read-out: Minimum inhibitory concentration
[8] = Staphylococcus aureus ATCC25923, 37° C., 20-22 h, read-out: Minimum inhibitory concentration
[9] = Methicillin-sensitive Staphylococcus epidermidis ATCC12228, 37° C., 20-22 h, read-out: Minimum inhibitory concentration
[10] = Escherichia coli ATCC25922, 37° C., 20-22 h, read-out: Minimum inhibitory concentration
[11] = Acinetobacter baumannii ATCC19606, 37° C., 20-22 h, read-out: Minimum inhibitory concentration
[12] = Methicillin-resistant Staphylococcus aureus ATCC33591, 37° C., 20-22 h, read-out: Minimum inhibitory concentration
[13] = Staphylococcus aureus, ATCC29213, read-out: Minimum inhibitory concentration
[14] = Staphylococcus aureus, ATCC25923, read-out: Minimum inhibitory concentration
[15] = Staphylococcus epidermidis, ATCC12228, read-out: Minimum inhibitory concentration
[16] = Escherichia coli, ATCC25922, read-out: Minimum inhibitory concentration
[17] = Acinetobacter baumannii, ATCC19606, read-out: Minimum inhibitory concentration
[18] = Staphylococcus aureus, ATCC33591, read-out: Minimum inhibitory concentration

| SMILES | MIC [1, 7] [µg/mL] | MIC [2, 8] [µg/mL] | MIC [3, 9] [µg/mL] | MIC [4, 10] [µg/mL] | MIC [5, 11] [µg/mL] | MIC [6, 12] [µg/mL] | MIC [1, 13] [µg/mL] | MIC [2, 14] [µg/mL] | MIC [3, 15] [µg/mL] | MIC [4, 16] [µg/mL] | MIC [5, 17] [µg/mL] | MIC [6, 18] [µg/mL] | inhibitory effect compared with the three tested positive controls [3] | inhibition compared with tiamulin ([5]; Acinetobacter baumannii, statement in words from Table 1) |
| --- | --- | --- | --- | --- | --- | --- | --- | --- | --- | --- | --- | --- | --- | --- |
| C=C[C@]1(C)C[C@@H](OC(=O)COC(=O)/C=C/c2ccc(C(F)(F)F)cc2F)[C@]2(C)[C@H](C)CC[C@]3(CCC(=O)[C@H]32)[C@@H](C)[C@@H]1O [Compound 19, (E)-2-(((3aR,4R,5R,8S,9R,12R)-8-hydroxy-4,7,9,12-tetramethyl-3-oxo-7-vinyldecahydro-4,9a-propanocyclopenta[8]annulen-5-yl)oxy)-2-oxoethyl 3-(2-fluoro-4-(trifluoromethyl)phenyl)acrylate] | 16 (≈ 26.9 µM) | 8 (≈ 13.5 µM) | 16 (≈ 26.9 µM) | 128 (≈ 215 µM) | > 256 | 64 (≈ 108 µM) |  |  |  |  |  |  |  |  |
| C=C[C@]1(C)C[C@@H](OC(=O)CSC(C)(C)CNC(=O)[C@H](N)C(C)C)[C@]2(C)[C@H](C)CC[C@]3(CCC(=O)[C@H]32)[C@@H](C)[C@@H]1O [Valnemulin, reference compound] |  |  |  |  |  |  | 2 (≈ 3.54 µM) | 4 (≈ 7.08 µM) | 64 (≈ 113 µM) | 16 (≈ 28.3 µM) | 2 (≈ 3.54 µM) | > 256 |  |  |
| C=C[C@]1(C)C[C@@H](OC(=O)COC(=O)/C=C/c2ccc(C#N)cc2)[C@]2(C)[C@H](C)CC[C@]3(CCC(=O)[C@H]32)[C@@H](C)[C@@H]1O [Compound 6, (E)-2-(((3aR,4R,5R,8S,9R,12R)-8-hydroxy-4,7,9,12-tetramethyl-3-oxo-7-vinyldecahydro-4,9a-propanocyclopenta[8]annulen-5-yl)oxy)-2-oxoethyl 3-(4-cyanophenyl)acrylate] |  |  |  |  |  |  | 64 (≈ 120 µM) | 32 (≈ 60 µM) | 64 (≈ 120 µM) | > 256 | > 256 | 64 (≈ 120 µM) |  |  |
| C=C[C@]1(C)C[C@@H](OC(=O)COC(=O)/C=C/c2cccc(C(F)(F)F)c2)[C@]2(C)[C@H](C)CC[C@]3(CCC(=O)[C@H]32)[C@@H](C)[C@@H]1O [Compound 16, (E)-2-(((3aR,4R,5R,8S,9R,12R)-8-hydroxy-4,7,9,12-tetramethyl-3-oxo-7-vinyldecahydro-4,9a-propanocyclopenta[8]annulen-5-yl)oxy)-2-oxoethyl 3-(3-(trifluoromethyl)phenyl)acrylate] | 64 (≈ 111 µM) | 32 (≈ 55.5 µM) | 64 (≈ 111 µM) | 64 (≈ 111 µM) | 128 (≈ 222 µM) | 256 (≈ 444 µM) |  |  |  |  |  |  |  |  |
| C=C[C@]1(C)C[C@@H](OC(=O)CS[C@@H]2C[C@H]3CC[C@@H](C2)N3C)[C@]2(C)[C@H](C)CC[C@]3(CCC(=O)[C@H]32)[C@@H](C)[C@@H]1O [Retapamulin, reference compound] |  |  |  |  |  |  | 4 (≈ 7.73 µM) | 4 (≈ 7.73 µM) | 32 (≈ 61.8 µM) | 32 (≈ 61.8 µM) | 16 (≈ 30.9 µM) | 32 (≈ 61.8 µM) |  |  |
| C=C[C@]1(C)C[C@@H](OC(=O)COC(=O)/C=C/c2ccc3ccccc3c2)[C@]2(C)[C@H](C)CC[C@]3(CCC(=O)[C@H]32)[C@@H](C)[C@@H]1O [Compound 18, (E)-2-(((3aR,4R,5R,7S,8S,9R,9aS,12R)-8-hydroxy-4,7,9,12-tetramethyl-3-oxo-7-vinyldecahydro-4,9a-propanocyclopenta[8]annulen-5-yl)oxy)-2-oxoethyl 3-(naphthalen-2-yl)acrylate] | 32 (≈ 57.3 µM) | 16 (≈ 28.6 µM) | 32 (≈ 57.3 µM) | 256 (≈ 458 µM) | 256 (≈ 458 µM) | 128 (≈ 229 µM) |  |  |  |  |  |  |  |  |
| C=C[C@]1(C)C[C@@H](OC(=O)COC(=O)/C=C/c2cccc(F)c2)[C@]2(C)[C@H](C)CC[C@]3(CCC(=O)[C@H]32)[C@@H](C)[C@@H]1O [Compound 8, (E)-2-(((3aR,4R,5R,8S,9R,12R)-8-hydroxy-4,7,9,12-tetramethyl-3-oxo-7-vinyldecahydro-4,9a-propanocyclopenta[8]annulen-5-yl)oxy)-2-oxoethyl 3-(3-fluorophenyl)acrylate] | 32 (≈ 60.8 µM) | 16 (≈ 30.4 µM) | 32 (≈ 60.8 µM) | > 256 | > 256 | 64 (≈ 122 µM) |  |  |  |  |  |  |  |  |
| C=C[C@]1(C)C[C@@H](OC(=O)COC(=O)/C=C/c2ccc(C(F)(F)F)cc2)[C@]2(C)[C@H](C)CC[C@]3(CCC(=O)[C@H]32)[C@@H](C)[C@@H]1O [Compound 15, (E)-2-(((3aR,4R,5R,8S,9R,12R)-8-hydroxy-4,7,9,12-tetramethyl-3-oxo-7-vinyldecahydro-4,9a-propanocyclopenta[8]annulen-5-yl)oxy)-2-oxoethyl 3-(4-(trifluoromethyl)phenyl)acrylate] | 16 (≈ 27.7 µM) | 16 (≈ 27.7 µM) | 8 (≈ 13.9 µM) | 64 (≈ 111 µM) | > 256 | 128 (≈ 222 µM) |  |  |  |  |  |  | better than that of the positive controls |  |
| C=C[C@]1(C)C[C@@H](OC(=O)COC(=O)/C=C/c2cccc(OCc3ccccc3)c2)[C@]2(C)[C@H](C)CC[C@]3(CCC(=O)[C@H]32)[C@@H](C)[C@@H]1O [Compound 13, (E)-2-(((3aR,4R,5R,8S,9R,12R)-8-hydroxy-4,7,9,12-tetramethyl-3-oxo-7-vinyldecahydro-4,9a-propanocyclopenta[8]annulen-5-yl)oxy)-2-oxoethyl 3-(3-(benzyloxy)phenyl)acrylate] | 32 (≈ 52.1 µM) | 16 (≈ 26 µM) | 32 (≈ 52.1 µM) | > 256 | 64 (≈ 104 µM) | 128 (≈ 208 µM) |  |  |  |  |  |  |  | as much as tiamulin |
| C=C[C@]1(C)C[C@@H](OC(=O)COC(=O)/C=C/c2ccccc2C(F)(F)F)[C@]2(C)[C@H](C)CC[C@]3(CCC(=O)[C@H]32)[C@@H](C)[C@@H]1O [Compound 21] | 64 (≈ 111 µM) | 32 (≈ 55.5 µM) | 64 (≈ 111 µM) | > 256 | > 256 | 128 (≈ 222 µM) |  |  |  |  |  |  |  |  |
| C=C[C@]1(C)C[C@@H](OC(=O)COC(=O)/C=C/c2ccc(F)c(Cl)c2)[C@]2(C)[C@H](C)CC[C@]3(CCC(=O)[C@H]32)[C@@H](C)[C@@H]1O [Compound 20, (E)-2-(((3aR,4R,5R,8S,9R,12R)-8-hydroxy-4,7,9,12-tetramethyl-3-oxo-7-vinyldecahydro-4,9a-propanocyclopenta[8]annulen-5-yl)oxy)-2-oxoethyl 3-(3-chloro-4-fluorophenyl)acrylate] | 32 (≈ 57 µM) | 16 (≈ 28.5 µM) | 32 (≈ 57 µM) | 64 (≈ 114 µM) | > 256 | 64 (≈ 114 µM) |  |  |  |  |  |  |  |  |
| C=C[C@]1(C)C[C@@H](OC(=O)COC(=O)/C=C/c2ccc(F)c(F)c2F)[C@]2(C)[C@H](C)CC[C@]3(CCC(=O)[C@H]32)[C@@H](C)[C@@H]1O [Compound 12, (E)-2-(((3aR,4R,5R,8S,9R,12R)-8-hydroxy-4,7,9,12-tetramethyl-3-oxo-7-vinyldecahydro-4,9a-propanocyclopenta[8]annulen-5-yl)oxy)-2-oxoethyl 3-(2,3,4-trifluorophenyl)acrylate] | 64 (≈ 114 µM) | 32 (≈ 56.9 µM) | 16 (≈ 28.4 µM) | 64 (≈ 114 µM) | 128 (≈ 228 µM) | 128 (≈ 228 µM) |  |  |  |  |  |  |  |  |
| C=C[C@]1(C)C[C@@H](OC(=O)COC(=O)/C=C/c2ccc(OC)c(OC)c2)[C@]2(C)[C@H](C)CC[C@]3(CCC(=O)[C@H]32)[C@@H](C)[C@@H]1O [Compound 7, (E)-2-(((3aR,4R,5R,8S,9R,12R)-8-hydroxy-4,7,9,12-tetramethyl-3-oxo-7-vinyldecahydro-4,9a-propanocyclopenta[8]annulen-5-yl)oxy)-2-oxoethyl 3-(3,4-dimethoxyphenyl)acrylate] | 8 (≈ 14.1 µM) | 4 (≈ 7.03 µM) | 16 (≈ 28.1 µM) | 64 (≈ 113 µM) | > 256 | 32 (≈ 56.3 µM) |  |  |  |  |  |  |  |  |
| C=C[C@]1(C)C[C@@H](OC(=O)COC(=O)/C=C/c2cccc(Cl)c2)[C@]2(C)[C@H](C)CC[C@]3(CCC(=O)[C@H]32)[C@@H](C)[C@@H]1O [Compound 2, (E)-2-(((3aR,4R,5R,8S,9R,12R)-8-hydroxy-4,7,9,12-tetramethyl-3-oxo-7-vinyldecahydro-4,9a-propanocyclopenta[8]annulen-5-yl)oxy)-2-oxoethyl 3-(3-chlorophenyl)acrylate] | 32 (≈ 58.9 µM) | 16 (≈ 29.5 µM) | 8 (≈ 14.7 µM) | 64 (≈ 118 µM) | 128 (≈ 236 µM) | 32 (≈ 58.9 µM) |  |  |  |  |  |  | better than that of the positive controls |  |
| C=C[C@]1(C)C[C@@H](OC(=O)COC(=O)/C=C/c2ccc(F)cc2)[C@]2(C)[C@H](C)CC[C@]3(CCC(=O)[C@H]32)[C@@H](C)[C@@H]1O [Compound 11, (E)-2-(((3aR,4R,5R,8S,9R,12R)-8-hydroxy-4,7,9,12-tetramethyl-3-oxo-7-vinyldecahydro-4,9a-propanocyclopenta[8]annulen-5-yl)oxy)-2-oxoethyl 3-(4-fluorophenyl)acrylate] | 32 (≈ 60.8 µM) | 16 (≈ 30.4 µM) | 32 (≈ 60.8 µM) | 128 (≈ 243 µM) | 128 (≈ 243 µM) | 32 (≈ 60.8 µM) |  |  |  |  |  |  |  |  |
| C=C[C@]1(C)C[C@@H](OC(=O)COC(=O)/C=C/c2ccc(Cn3ccnc3)cc2)[C@]2(C)[C@H](C)CC[C@]3(CCC(=O)[C@H]32)[C@@H](C)[C@@H]1O [Compound 17] | 16 (≈ 27.2 µM) | 8 (≈ 13.6 µM) | 16 (≈ 27.2 µM) | 64 (≈ 109 µM) | 128 (≈ 217 µM) | 32 (≈ 54.4 µM) |  |  |  |  |  |  |  |  |

Reference: patent publication US11872202B2, “Pleuromutilin cinnamic acid ester compounds with activities against antibiotic-resistant infections” (SHAANXI UNIVERSITY OF SCIENCE AND TECHNOLOGY, priority 2021, dated 2024)
